Data from PMC9820430, “New Affordable Methods for Large-Scale Isolation of Major Olive Secoiridoids and Systematic Comparative Study of Their Antiproliferative/Cytotoxic Effect on Multiple Cancer Cell Lines of Different Cancer Origins” (International Journal of Molecular Sciences, 2022).
Read-outs that look alike come from different tables or passages of the source.

Experiments:
[1] = system: WJ-MSC; experiment: ATP-based luminescence cell viability assay (ViaLight), 72 h; design: species or system human; conditions: WJ-MSC (mesenchymal cells), 72 h treatment, read-out: EC50 Values of Olive Oil Polyphenols
[2] = system: NHDF; experiment: as above; conditions: NHDF (normal human dermal fibroblasts); 72 h treatment; read-out: EC50 Values of Olive Oil Polyphenols
Procedure: (§1) The antiproliferative/cytotoxic effects of the selected OOPs on each cell line were assessed by measuring the cellular ATP levels after 72 h treatments using an ATP-based luminescence assay. This assay, initially developed as a tumor chemosensitivity assay, has shown considerable promise as a general in vitro toxicity assay due to its high sensitivity that allows the detection of a small number of cells. Consequently, it can be applied to both cancer cell lines and primary tissue cells. […] The EC50 values were calculated by nonlinear regression (curve fit) using a sigmoidal dose–response equation (Figure 2A and Figure S2).
(§2) The OOPs tested in this study were first dissolved in an appropriate DMSO volume such as to prepare a final stock solution of 50 mM, which was further used to prepare various compound concentrations in DMSO-based solutions. The final DMSO concentration in the cell culture was maintained constant in all treated groups of any given experiment and never exceeded the value of 0.2% (v/v). For the treatment experiments, cells were plated in 96-well culture plates, in 100 μL of complete medium at a seeding density of 5000–10,000 cells/well—depending on cells’ size and doubling time—and were allowed to adhere overnight (~16 h). The next day, 150 μL of complete medium was added to each well and the cells were treated with various concentrations of OOPs. Each concentration was tested in triplicate and was repeated 2–3 times. To prepare the final concentration solutions, 0.5 μL of a 500× stock of each tested compound in DMSO was added directly into each well in a final volume of 250 μL culture medium and was gently mixed by pipetting. Control wells were prepared under the same experimental conditions by adding only DMSO at a final concentration of 0.2% (v/v). Compounds were not renewed during the entire period of cell exposure. All cells were cultured at 37 °C in a 5% (v/v) CO2 for 24, 48 or 72 h.
(§3) Briefly, after the treatment with OOPs, the adapted medium was removed from the dish wells and the cells were washed twice with medium without FBS. Then, the C-lysis (LT27-076) was diluted in PBS (1:2) and a volume of 50 μL was added to each well. Cells were incubated with C-lysis for at least 10 min. Finally, an equal volume of lysed cells from each well and ATP monitoring reagent (AMR; LT27-212) was transferred to the wells of a white-walled illuminometer plate (Greiner bio-one; 655074). Cell viability was quantified by measuring luminescence using a multi-mode microplate reader Safire^2 Tecan (software Magellan V6.00 STD.2PC WIN.20000/XP).

[3] = system: sixteen human cancer cell lines originating from eight different tissues; experiment: ATP-based luminescence cell viability assay, whole panel; conditions: for Bioactivity range on cancer cell lines (grade in words): Figure 3, sixteen cancer cell lines; for EC50: 72 h treatment
Procedure: as §1, §2, §3

[4] = system: AGS; experiment: ATP assay under 1% (v/v) O2 versus 20% (v/v) O2, 72 h; assay type: cell-based, human; conditions: 1% (v/v) O2 vs 20% (v/v) O2
Procedure: The effects of drugs on cancer cell lines are usually tested under atmospheric conditions (20% (v/v) O2). However, the O2 content in tissues (normoxia) and solid tumors (hypoxia) is ≤ 5% (v/v). In some tumors (i.e., pancreatic tumors) the % O2 is even ≤ 1% (v/v). This affects cell metabolism and signaling pathways which depend on the hypoxia-induced Factor 1A (HIF1A) and it could affect the activity of certain drugs. […] The effects of these three OOPs were tested on the MDA-MB 231, SK-BR-3 and MCF-7 breast cancer and on the AGS stomach cancer cell lines.
Figure 6 Effect of O2 concentration on the antiproliferative/cytotoxic effect of OOPs. […] Cell viability was determined on (A) AGS, (B) MDA-MB 231, (C) MCF-7 and (D) SK-BR-3 cell lines using ATP-based luminescence assay. The results presented are from two independent experiments performed in triplicate. Bar graphs represent the mean cell count ± SE in each treatment group normalized to the control group (i.e., cells treated only with 0.2% (v/v) DMSO). * p < 0.05; ** p ≤ 0.01; *** p ≤ 0.001 (t-test) comparing the two different conditions.

[5] = system: MCF-10A cells; design: method as in PMID 23403296, PMID 33117773, PMID 24849787, PMID 30964898; conditions: cited from earlier work
[6] = Homo sapiens, range across cancer cell lines, read-out: EC50, range over the cancer cell lines

| Molecule | EC50 ([1]; Homo sapiens) [µM] | EC50 [2] [µM] | Bioactivity range on cancer cell lines (grade in words) [3] | EC50 [3, 6] [µM] | bioactivity under hypoxia versus atmospheric O2 [4] | sensitivity of cells to treatment ([5]; 150 μM) | EC50 ([3]; Homo sapiens, most cancer cell lines, read-out: EC50 in most cancer cell lines) [µM] | sensitivity of cells to treatment ([5]; 40 μM) | EC50 [1] [µM] | EC50 ([3]; range across cancer cell lines, read-out: EC50, range over the cancer cell lines) [µM] | sensitivity of cells to treatment ([5]; 50 μM) |
| --- | --- | --- | --- | --- | --- | --- | --- | --- | --- | --- | --- |
| COC(=O)C1=COC(C)[C@@H](C=O)[C@@H]1CC(=O)OCCc1ccc(O)c(O)c1 (mixture of isomers) [3a,b, oleuropein aglycone] | 28.7 ± 0.3 | 42.7 ± 0.5 | Very strong activity on 7/16 cancer cell lines | 11.9 to 50.1 | similar | resistant | – | – | – | – | – |
| C/C=C(/C=O)[C@@H](CC=O)CC(=O)OCCc1ccc(O)cc1 [compound 1, oleocanthal] | – | 24.7 ± 0.4 | Very strong activity on 10/16 cancer cell lines | 9.1 to 44.6 | similar | – | 9 to 20 | resistant | – | – | – |
| C/C=C(/C=O)[C@@H](CC=O)CC(=O)OCCc1ccc(O)c(O)c1 [compound 2, oleacein] | 28.2 ± 11.1 | 49 ± 1.2 | Good/moderate activity on 9/16 cancer cell lines | > 25 | – | – | – | – | – | – | – |
| ligstroside aglycone [4a,b] | – | 46.5 ± 5 | Very strong activity on lung cancer cell lines | – | less effective under hypoxic conditions | – | – | – | 39.3 ± 3.8 | 11.6 to 98.2 | resistant |
